Source: ChEMBL document CHEMBL1137813, “An extract of Tagetes lucida and its phenolic constituents as antioxidants” (J Nat Prod, 2002)

These compounds were tested on Radical scavenging activity (assay: Antioxidant activity assessed as DPPH radical scavenging activity after 20 mins by UV-visible spectrophotometry).
Type: functional

| Compound | EC50 [µg] |
| --- | --- |
| O=c1c(O)c(-c2ccc(O)cc2)oc2cc(O[C@@H]3O[C@H](CO)[C@@H](O)[C@H](O)[C@H]3O)c(O)c(O)c12 | 6.9 |
| O=C(O)c1cc(O)c(O)c(O)c1 [GALLIC ACID] | 1.2 |
| O=c1c(O)c(-c2ccc(O)cc2)oc2cc(O)cc(O)c12 [KAEMPFEROL] | 4.4 |
| O=c1c(O)c(-c2ccc(O)c(O)c2)oc2cc(O)cc(O)c12 [QUERCETIN] | 2.3 |
| C[C@@H]1O[C@@H](OC[C@H]2O[C@@H](Oc3c(-c4ccc(O)c(O)c4)oc4cc(O)cc(O)c4c3=O)[C@H](O)[C@@H](O)[C@@H]2O)[C@H](O)[C@H](O)[C@H]1O [RUTIN] | 4.8 |

Now from value to compound:

| EC50 [µg] | Compound |
| --- | --- |
| 4.6 | O=c1c(O)c(-c2ccc(O)c(O)c2)oc2cc(O[C@@H]3O[C@H](CO)[C@@H](O)[C@H](O)[C@H]3O)c(O)c(O)c12 |
| 10.1 | Cc1c(C)c2c(c(C)c1O)CC[C@@](C)(CCC[C@H](C)CCC[C@H](C)CCCC(C)C)O2 [ALPHA-TOCOPHEROL] |
| 3 | O=C(O)/C=C/c1ccc(O)c(O)c1 [CAFFEIC ACID] |
